Measurements: patent publication US20130178469A1, “NOVEL ANTIVIRAL AGENTS” (SHANGHAI INSTITUTE OF ORGANIC CHEMISTRY (SIOC), priority 2010, published 2013)
Like-named read-outs stand apart in the source and are kept apart here.

Legend:
[1] = test system: HIV-1; test: Luciferase Assay with single-round reporter virus (NLXLuc or HIV-Luc); format: cell-based; details: Human immunodeficiency virus 1
Description: Infectivity assays using reporter viruses derived from lentiviral vectors capable of a single round of infection were used to determine the activity (EC50) of compounds. The DNA used to generate viruses for infection was the full-length HIV-1 genome which had been envelope-deleted. In addition, a reporter gene (the firefly luciferase gene from Photinus pyralis) was cloned into the nefregion of the HIV backbone for ease of assay readout. […]. Culture supernatants containing VSV-G pseudotyped virions were harvested 64 h post transfection, clarified by centrifugation to remove cell debris, and frozen at −70° C. until use.
293FT cells were plated out at 12000 cells per well in CellView 96-well cell culture plates (Invitrogen) 16 h prior to compound addition. Compounds were preincubated with cells for 4 h at 37° C. prior to the addition of virus sufficient to generate approximately 10000 Luciferase light units (as measured by the Victor Wallace luminometer) upon assaying using the Bright-Glo™ reagent (Promega) according to the manufacturer's instructions at 48 h post infection.
In the tables below, this assay is referred to as NLXLuc or HIV-Luc.

[2] = Bioavailability and pharmacokinetic profile following intravenous and oral administration; format: in vivo, Male Sprague Dawley Rats; details: for MRT inf: read-out: MRT(0-∞); for Vd: read-out: Vz
Procedure: (§1) Method: For IV infusion over 10 minutes the compound of Example 3.4 was dissolved in 20% DMSO, 30% PEG400 and 50% Water. For oral (PO) dosing AVX62738 was dissolved in 0.5% benzyl alcohol and 0.4% Tween 80 and 99.1% 0.5% hydroxypropylmethylcellulose. Compounds were dosed IV and then after a one week washout, orally in the same rats. (Body weight: Rat 1: 254.7 g; Rat 2: 253.4 g). Ex-vivo plasma samples were assayed for AVX62738 using an LC-ms method of Lower limit of quantitation. (LLOQ)=2.5 ng/mL.

[3] = Clinical Observation following intravenous and oral administration; format: in vivo, Male Sprague Dawley Rats
Procedure: as §1

[4] = male, Sprague Dawley, rat, plasma, iv, 5 mg/kg, IV 5 mg/kg, Mean
[5] = male, Sprague Dawley, rat, plasma, iv, 5 mg/kg, IV 5 mg/kg, Rat 1
[6] = male, Sprague Dawley, rat, plasma, iv, 5 mg/kg, IV 5 mg/kg, Rat 2
[7] = male, Sprague Dawley, rat, plasma, iv, 5 mg/kg, IV (5 mg/kg), Mean
[8] = male, Sprague Dawley, rat, plasma, iv, 5 mg/kg, IV (5 mg/kg), animal 701
[9] = male, Sprague Dawley, rat, plasma, po, 10 mg/kg, PO 10 mg/kg, Mean
[10] = male, Sprague Dawley, rat, plasma, po, 10 mg/kg, PO 10 mg/kg, Rat 1
[11] = male, Sprague Dawley, rat, plasma, po, 10 mg/kg, PO 10 mg/kg, Rat 2
[12] = male, Sprague Dawley, rat, plasma, po, 10 mg/kg, PO (10 mg/kg), Mean
[13] = male, Sprague Dawley, rat, plasma, po, 10 mg/kg, PO (10 mg/kg), animal 801
[14] = male, Sprague Dawley, rat, plasma, po, 10 mg/kg, PO (10 mg/kg), animal 802
[15] = male, Sprague-Dawley, rat, plasma, iv, 5 mg/kg, IV (5 mg/kg), animal 701
[16] = male, Sprague-Dawley, rat, plasma, iv, 5 mg/kg, IV (5 mg/kg), animal 702

Structure (SMILES): CN1CCN(c2cc(N3CCN(C)S3(=O)=O)c3nc(C(=O)NCc4ccc(F)cc4)c(O)c(=O)n3c2)CC1 [Example 3.4, 3-Hydroxy-9-(5-methyl-1,1-dioxo-1,6-[1,2,5]thiadiazolidin-2-yl)-7-(4-methyl-piperazin-1-yl)-4-oxo-4H-pyrido[1,2-a]pyrimidine-2-carboxylic acid 4-fluoro-benzylamide]
- EC50 [1]: 1 to 10 nM
- Plasma Concentration ([2]; IV 5 mg/kg, Rat 1, 24 hr): BLQ (BLQ: Below limit of quantitation)
- Plasma Concentration ([2]; IV 5 mg/kg, Rat 1, Pre-dose): BLQ (BLQ: Below limit of quantitation)
- Plasma Concentration ([2]; IV 5 mg/kg, Rat 2, 24 hr): BLQ (BLQ: Below limit of quantitation)
- Plasma Concentration ([2]; IV 5 mg/kg, Rat 2, Pre-dose): BLQ (BLQ: Below limit of quantitation)
- CLz ([2]; IV (5 mg/kg), Mean): 44.8 mL/min/kg
- t1/2z ([2]; IV (5 mg/kg), Mean): 80.4 min
- CLz ([2]; IV (5 mg/kg), animal 701): 44.8 mL/min/kg
- t1/2z ([2]; IV (5 mg/kg), animal 701): 83.4 min
- CLz ([2]; IV (5 mg/kg), animal 702): 44.8 mL/min/kg
- t1/2z ([2]; IV (5 mg/kg), animal 702): 77.4 min
- Plasma Concentration ([2]; PO 10 mg/kg, Rat 1, Pre-dose): BLQ (BLQ: Below limit of quantitation)
- Plasma Concentration ([2]; PO 10 mg/kg, Rat 2, 6 hr): BLQ (BLQ: Below limit of quantitation)
- Plasma Concentration ([2]; PO 10 mg/kg, Rat 2, 8 hr): BLQ (BLQ: Below limit of quantitation)
- Plasma Concentration ([2]; PO 10 mg/kg, Rat 2, 24 hr): BLQ (BLQ: Below limit of quantitation)
- Plasma Concentration ([2]; PO 10 mg/kg, Rat 2, Pre-dose): BLQ (BLQ: Below limit of quantitation)
- F ([2]; PO (10 mg/kg), Mean): 2.95%
- t1/2z ([2]; PO (10 mg/kg), Mean): 74.4 min
- F ([2]; PO (10 mg/kg), animal 801): 2.39%
- t1/2z ([2]; PO (10 mg/kg), animal 801): 99 min
- F ([2]; PO (10 mg/kg), animal 802): 3.50%
- t1/2z ([2]; PO (10 mg/kg), animal 802): 49.8 min
- concentration at 0.083 hr [2, 4]: 3030 ng/mL
- concentration at 0.25 hr [2, 4]: 2060 ng/mL
- concentration at 0.5 hr [2, 4]: 1140 ng/mL
- concentration at 1 hr [2, 4]: 527 ng/mL
- concentration at 2 hr [2, 4]: 113 ng/mL
- concentration at 4 hr [2, 4]: 19 ng/mL
- concentration at 6 hr ([2]; male, Sprague Dawley, rat, plasma, iv, 5 mg/kg, IV 5 mg/kg, Mean, 6 hr): 6.21 ng/mL
- concentration at 8 h ([2]; male, Sprague Dawley, rat, plasma, iv, 5 mg/kg, IV 5 mg/kg, Mean, 8 hr): 2.41 ng/mL
- concentration at 0.083 hr [2, 5]: 2710 ng/mL
- concentration at 0.25 hr [2, 5]: 1990 ng/mL
- concentration at 0.5 hr [2, 5]: 1210 ng/mL
- concentration at 1 hr [2, 5]: 548 ng/mL
- concentration at 2 hr [2, 5]: 123 ng/mL
- concentration at 4 hr [2, 5]: 19.3 ng/mL
- concentration at 6 hr ([2]; male, Sprague Dawley, rat, plasma, iv, 5 mg/kg, IV 5 mg/kg, Rat 1, 6 hr): 5.44 ng/mL
- concentration at 8 h ([2]; male, Sprague Dawley, rat, plasma, iv, 5 mg/kg, IV 5 mg/kg, Rat 1, 8 hr): 2.64 ng/mL
- concentration at 0.083 hr [2, 6]: 3350 ng/mL
- concentration at 0.25 hr [2, 6]: 2130 ng/mL
- concentration at 0.5 hr [2, 6]: 1060 ng/mL
- concentration at 1 hr [2, 6]: 506 ng/mL
- concentration at 2 hr [2, 6]: 104 ng/mL
- concentration at 4 hr [2, 6]: 18.7 ng/mL
- concentration at 6 hr ([2]; male, Sprague Dawley, rat, plasma, iv, 5 mg/kg, IV 5 mg/kg, Rat 2, 6 hr): 6.97 ng/mL
- concentration at 8 h ([2]; male, Sprague Dawley, rat, plasma, iv, 5 mg/kg, IV 5 mg/kg, Rat 2, 8 hr): 2.19 ng/mL
- AUC(0-inf) [2, 7]: 1860 ng·h/mL
- AUC(0-t) [2, 7]: 1850 ng·h/mL
- Cmax [2, 7]: 3030 ng/mL
- Tmax [2, 7]: 4.8 min
- MRT inf [2, 7]: 39.6 min
- Vd [2, 7]: 5.21 L/kg
- AUC(0-inf) [2, 8]: 1860 ng·h/mL
- AUC(0-t) [2, 8]: 1860 ng·h/mL
- Tmax [2, 8]: 4.8 min
- MRT inf [2, 8]: 40.8 min
- concentration at 0.083 hr [2, 9]: 35.2 ng/mL
- concentration at 0.25 hr [2, 9]: 72.2 ng/mL
- concentration at 0.5 hr [2, 9]: 63.6 ng/mL
- concentration at 1 hr [2, 9]: 39.5 ng/mL
- concentration at 2 hr [2, 9]: 14.1 ng/mL
- concentration at 4 hr [2, 9]: 5.29 ng/mL
- concentration at 6 h ([2]; male, Sprague Dawley, rat, plasma, po, 10 mg/kg, PO 10 mg/kg, Mean, 6 hr): 1.31 ng/mL
- concentration at 0.083 hr [2, 10]: 42.4 ng/mL
- concentration at 0.25 hr [2, 10]: 66.2 ng/mL
- concentration at 0.5 hr [2, 10]: 35.7 ng/mL
- concentration at 1 hr [2, 10]: 20.9 ng/mL
- concentration at 2 hr [2, 10]: 13.8 ng/mL
- concentration at 4 hr [2, 10]: 5.62 ng/mL
- concentration at 6 hr ([2]; male, Sprague Dawley, rat, plasma, po, 10 mg/kg, PO 10 mg/kg, Rat 1, 6 hr): 2.62 ng/mL
- concentration at 8 h ([2]; male, Sprague Dawley, rat, plasma, po, 10 mg/kg, PO 10 mg/kg, Rat 1, 8 hr, not kept for calculation): 148 ng/mL
- concentration at 24 h ([2]; male, Sprague Dawley, rat, plasma, po, 10 mg/kg, PO 10 mg/kg, Rat 1, 24 hr, not kept for calculation): 4.66 ng/mL
- concentration at 0.083 hr [2, 11]: 28.1 ng/mL
- concentration at 0.25 hr [2, 11]: 78.1 ng/mL
- concentration at 0.5 hr [2, 11]: 91.6 ng/mL
- concentration at 1 hr [2, 11]: 58.1 ng/mL
- concentration at 2 hr [2, 11]: 14.3 ng/mL
- concentration at 4 hr [2, 11]: 4.96 ng/mL
- AUC(0-inf) [2, 12]: 110 ng·h/mL
- AUC(0-t) [2, 12]: 103 ng·h/mL
- Cmax [2, 12]: 78.9 ng/mL
- Tmax [2, 12]: 22.8 min
- MRT inf [2, 12]: 97.8 min
- AUC(0-inf) [2, 13]: 89 ng·h/mL
- AUC(0-t) [2, 13]: 82.8 ng·h/mL
- Cmax [2, 13]: 66.2 ng/mL
- Tmax [2, 13]: 15 min
- MRT inf [2, 13]: 122 min
- AUC(0-inf) [2, 14]: 130 ng·h/mL
- AUC(0-t) [2, 14]: 124 ng·h/mL
- Cmax [2, 14]: 91.6 ng/mL
- Tmax [2, 14]: 30 min
- MRT inf [2, 14]: 73.2 min
- Cmax [2, 15]: 2710 ng/mL
- Vd [2, 15]: 5.39 L/kg
- AUC(0-inf) [2, 16]: 1860 ng·h/mL
- AUC(0-t) [2, 16]: 1850 ng·h/mL
- Cmax [2, 16]: 3350 ng/mL
- Tmax [2, 16]: 4.8 min
- MRT inf [2, 16]: 37.8 min
- Vd [2, 16]: 5.02 L/kg
- Clinical Observation ([3]; following intravenous administration (5 mg/kg)): Following intravenous administration, no obvious abnormalities were
- Clinical Observation ([3]; following oral administration (10 mg/kg)): Following oral administration, no obvious abnormalities were observed.
